{
  "source": "patent US20120045532A1",
  "about": "“Anticancer Methods Employing Extracts of Gleditsia sinensis Lam” (priority 2008, published 2012)",
  "key": {"mTORC2 / Akt": {"test_system": "mTORC2 / Akt", "experiment": "Ser473-phosphorylated Akt in LR fractions as read-out for mTORC2 activity (Western)", "assay_type": "cell-based, human", "conditions": "Hs578T cells; 70 μg/ml BN107 or 110 μM oleanolic acid, 4 hr", "description": "(§1) In addition, as the same pool of mTOR/FRAP1 polypeptide is shared between the mTORC1 and mTORC2 complex and the mTORC2 complex partner RICTOR was decreased in the lipid rafts of BN107 or OA-treated Hs578T cells, it was hypothesized that mTORC2 activity would be inhibited as well. Given the recent discovery that mTORC2 is the main kinase phosphorylating Akt at Ser473, and Akt signaling has been implicated to take place on LRs, the level of Ser473 phosphorylated Akt was analyzed in LR fractions as a read-out for mTORC2 activity. […] Conversely, addition of exogenous cholesterol restored these signaling events disrupted by BN107 or OA (FIG. 8C). […] The levels of transferrin receptor (TR) marking the non-LR plasma membrane region and GAPDH marking the cytosolic fractions were not affected in both cell lines by either BN107 or OA treatment.\n(§2) A modified procedure for density gradient centrifugation using Nycodenz from Sigma-Aldrich (St. Louis, Mo.) was used to fractionate Triton X-100-soluble and Triton X-100-insoluble membrane and cytoskeletal subdomains and complexes. […] Total of 10 fractions and control input lysate were analyzed for the distribution of proteins by Western blot. […] The fractions were dialyzed against PBS to remove the gradient sugars and concentrated using Amicon Ultra 4 centrifugal filter device (Millipore) before protein quantitation (BCA reagent, Thermo Fisher). […]"}, "[1]": {"test_system": "phospho-mTOR, total mTOR, RAPTOR and RICTOR in LR fractions of Hs578T", "experiment": "Western blot of lipid raft fractions: mTOR complex components", "assay_type": "cell-based, human", "conditions": "Hs578T cells; 70 μg/ml BN107 or 110 μM oleanolic acid, 4 hours", "description": "(§3) As Akt/mTOR, the main survival signaling pathway, has been implicated to take place on LRs, it was hypothesized that BN107 and similarly OA disrupted the signaling of these complexes on LRs. The fractions collected from sucrose-density—centrifugation of BN107 or OA treated Hs578T or MCF7 lysates were dialyzed and concentrated. Same amounts of protein from LR (fractions 3-5), non-LR plasma membrane (f6), and cytosolic (f8) fractions were analyzed by Western blotting. The levels of RAPTOR, Akt, 4E-BP, p70S6 kinase were first observed in these collected fractions; and it was confirmed that they were all enriched in the LR fractions (data not shown). The levels of phospho-mTOR, total mTOR; as well as the mTORC1 and mTORC2 complex partner RAPTOR and RICTOR, respectively, were then measured in BN107 or OA treated Hs578T cells. […]\nas §2"}, "[2]": {"test_system": "mTOR/FRAP1, phospho-mTOR, RAPTOR, RICTOR, Akt in Hs578T cells", "experiment": "Western analysis of total cellular lysate", "assay_type": "cell-based, human", "conditions": "ER− Hs578T cells (data not shown)", "excerpt": "To ascertain that these signaling changes occurred at LRs indeed translated into the whole-cell level. […] Consistent with the data shown within the lipid raft fractions, levels of total mTOR/FRAP1, phospho-mTOR, RAPTOR, and RICTOR were all decreased within one hour of BN107 treatment, resulting in minimal mTORC1 and mTORC2 activities to phosphorylate 4E-BP and p70S6 kinase, and Ser473-Akt, respectively. The decrease in total protein levels of mTOR/FRAP1, RAPTOR and RICTOR occurred post-transcriptionally as the levels of their corresponding mRNAs were not modulated by BN107 or OA treatment in the sensitive ER− Hs578T cells (data not shown). […] These effects were presumably due to their cholesterol binding/stripping effect on LRs, as addition of exogenous cholesterol seemed to reverse these events (FIG. 8C).\nCell extracts, obtained by scraping cells in PBS in the presence of protein phosphatase and protease inhibitors and lysing with ice-cold RIPA buffer, were loaded on the SDS-PAGE at 25-30 μg per lane. Same amounts of proteins […] were precipitated from lipid raft fractions and loaded onto 3-7% TA gel or 4-12% Bis-Tris gels. Separated proteins were transferred onto nitrocellulose membrane (iBlot, Invitrogen) and used for probing with specific antibodies following manufacturer's instruction. Blots were reused several times after mild stripping (Restore, ThermoFisher) when necessary. […]"}, "[3]": {"conditions": "animals; cited from earlier work"}, "MDA-MB-231": {"test_system": "MDA-MB-231", "experiment": "Annexin V/PI binding (cell death/apoptosis), flow cytometry", "assay_type": "cell-based", "conditions": "Homo sapiens, MDA-MB-231, read-out: EC50 for MDA-MB-231", "description": "(§4) ERα plays a role in BN107-induced apoptosis. In Table 1-1 below are the results of experiments in which cells were treated with BN107 and harvested after 24 hours for analysis of Annexin V/PI binding. Three independent experiments were conducted for each data point.\n(§5) BN107 induced apoptosis selectively in ER− breast cancer cells and introducing expression of ERα protected these cells against BN107 Prior studies have shown that ethanolic extract of G. sinensis is cytotoxic to a number tumor cell lines by inducing cytotoxicity. A wider panel of solid-tumor cell lines, derived from various origins, is analyzed herein. Sub-confluent cultures were treated with 70 μg/ml of BN107 for 18 hours and cell death were analyzed by annexinV/PI binding followed by flow cytometry. […] It is evident that BN107 induced cell death in tumor lines derived from various origins to different extent. […] These experiments sought to determine if there was correlative relationship between genotypic characteristics of the cells versus sensitivity. As shown in Table 2-1, it appeared that cells lacking ER expression were highly sensitive to BN107; while cells containing functional ER were relatively insensitive to BN107 at this dose. The death induced by BN107 in ER− lines was apoptotic in nature that was primarily mediated by the mitochondrial pathway, as evident from Annexin V binding, dissipation of mitochondrial potential, cytosolic release of cytochrome C, activation of caspases, and DNA fragmentation.\n(§6) All the cell lines used were purchased from ATCC. Cells were treated with 70 μg/ml of BN107 (calculated based on freeze-dry weight). The dose is determined based on the EC50 of each batch in killing 50% of Hs578T or MDA-MB-231 cells 18 hours after treatment.\n(§7) Cell survival was measured using FACS analysis of AnnexinV-alexa 488/PI bound cells following the manufacturer's instruction (Invitrogen). Mitochondrial transmembrane potential (MTP) was determined using JC-1 dye (Invitrogen) in live cells and analyzed using flow cytomery. Caspase 3 and 9 activities were measured using specific caspase peptide inhibitors (Calbiochem) conjugated to FITC followed by flow cytometry analysis. Cytosolic cytochrome C release were determined by separating the cytosol from mitochondria (Biovision) and cytochrome C released in cytosol was shown using immunoblotting."}, "Hs578T": {"test_system": "Hs578T", "experiment": "Annexin V/PI binding (cell death/apoptosis), flow cytometry", "assay_type": "cell-based", "conditions": "for effect of addition of cholesterol on induced death: Hs578T cells, 70 μg/ml BN107, 0.2 mg/ml BZL101 or 500 nM taxol with 500 μM cholesterol, 18 hours", "description": "as §4, §5, §6, §7"}, "mTORC1": {"test_system": "mTORC1", "experiment": "mTORC1 activity by phosphorylation of 4E-BP and p70S6 kinase (Western)", "assay_type": "cell-based, human", "conditions": "lipid raft region of Hs578T cells; 70 μg/ml BN107 or 110 μM oleanolic acid, 4 hr", "description": "as §3, §2"}, "[4]": {"test_system": "mTORC1/mTORC2/Akt signaling in MCF7 cells", "experiment": "Western blot of lipid raft fractions, resistant cells", "assay_type": "cell-based, human", "description": "as §1, §2"}},
  "data": [
    {"smiles": "CC1(C)CC[C@]2(C(=O)O)CC[C@]3(C)C(=CC[C@@H]4[C@@]5(C)CC[C@H](O)C(C)(C)[C@@H]5CC[C@]43C)[C@@H]2C1", "note": "[OA, oleanolic acid]", "values": [
      {"measurement": "level of Ser473-phosphorylated Akt in LR fractions (mTORC2 read-out)", "setting": "mTORC2 / Akt", "result": "decreased"},
      {"measurement": "total level of Akt on LRs", "setting": "mTORC2 / Akt", "result": "no effect"},
      {"measurement": "levels of phospho-mTOR, total mTOR, RAPTOR and RICTOR in LR fractions", "setting": "[1]", "result": "significantly decreased"},
      {"measurement": "mRNA levels of mTOR/FRAP1, RAPTOR and RICTOR", "setting": "[2]", "result": "not modulated"},
      {"measurement": "toxicity at anti-tumor doses", "setting": "[3]", "result": "minimal toxicity"},
      {"measurement": "EC50", "setting": "MDA-MB-231", "result": 125, "unit": "µM"},
      {"measurement": "EC50", "setting": "Hs578T; Homo sapiens, Hs-578T, read-out: EC50 for Hs578T", "result": 110, "unit": "µM"},
      {"measurement": "effect of addition of cholesterol on induced death", "setting": "Hs578T", "result": "protected cells specifically and completely"},
      {"measurement": "mTORC1 activity (phosphorylation of 4E-BP and p70S6 kinase)", "setting": "mTORC1", "result": "greatly inhibited"},
      {"measurement": "changes in mTORC1/mTORC2/Akt signaling on LRs", "setting": "[4]", "result": "None of these changes were observed"}
    ]},
    {"smiles": "CC(=O)O[C@H]1C(=O)[C@@]2(C)[C@H]([C@H](OC(=O)c3ccccc3)[C@]3(O)C[C@H](OC(=O)[C@H](O)[C@@H](NC(=O)c4ccccc4)c4ccccc4)C(C)=C1C3(C)C)[C@]1(OC(C)=O)CO[C@@H]1C[C@@H]2O", "note": "[taxol, paclitaxel, reference compound]", "values": [
      {"measurement": "effect of addition of cholesterol on induced death", "setting": "Hs578T", "result": "no effect"}
    ]}
  ]
}
